The text below walks through data of ChEMBL document CHEMBL1158282, “Iridoid Molluscicidal Compounds from Apodytes dimidiata” (1996).

The structures appear in SMILES notation. In brackets after ≈: the same amount, converted by molar mass.

This experiment has as its system Bulinus africanus. The experiment in a line: Molluscicidal activity against Bulinus africanus. The class given is functional. The conditions noted are these: for LC50: Bulinus africanus, read-out: LD50 (the source's name).

With `COC(=O)C1=CO[C@@H](O)[C@@H]2C(COC(C)=O)=CC[C@H]12`, the LD90 turned out to be 39.4 ppm and the LC50 came out at 21.7 µg/mL (≈ 81 µM).

Regarding `COC(=O)C1=CO[C@@H](O)[C@@H]2C(CO)=CC[C@H]12` [GENIPIN], the LD90 came to 32.57 ppm and the LC50 turned out to be 25.3 µg/mL (≈ 112 µM).
